Patent US4791197A, “Cephalosporin compounds” (priority 1984, dated 1988)
Counter-ions that a name gives are not always drawn.

Columns and labels:
Experiment in all cases: MIC against growth of bacteria by agar-dilution method
Assay type in all cases: cell-based
[1] = tested on: Salmonella typhimurium LT-2; details: Salmonella enterica
Description: (§1) The compounds of this invention are all novel compounds.

[2] = tested on: Klebsiella pneumoniae PCI 602; details: PCI602
Description: as §1

[3] = tested on: Escherichia coli NIHJ JC-2; details: NIHJJC2
Description: as §1

Proteus vulgaris GN 76 = details: GN76
Description: as §1

[4] = tested on: Staphylococcus aureus Smith
Description: as §1

Proteus rettgeri GN 624 = details: Providencia rettgeri, GN624
Description: as §1

[5] = tested on: Serratia marcescens No. 1
Description: as §1

[6] = tested on: Pseudomonas aeruginosa MB 3833; details: MB3833
Description: as §1

[7] = tested on: Staphylococcus aureus 209P JC-1
Description: as §1

Proteus mirabillis GN 79 = tested on: Proteus mirabillis GN 79
Description: as §1

MIC [1] [µg/mL]	MIC [2] [µg/mL]	MIC [3] [µg/mL]	MIC (Proteus vulgaris GN 76) [µg/mL]	MIC [4] [µg/mL]	MIC (Proteus rettgeri GN 624) [µg/mL]	MIC [5] [µg/mL]	MIC [6] [µg/mL]	MIC [7] [µg/mL]	MIC (Proteus mirabillis GN 79) [µg/mL]	Structure (SMILES)
0.39	0.78	0.78	0.39	3.13	≤ 0.025	0.1	> 50	3.13	0.2	Cc1nnc(SCC2=C(C(=O)O)N3C(=O)C(NC(=O)/C(=C\C(=O)O)c4csc(N)n4)C3SC2)s1 (stereo not drawn) [Example 2, 7-[2-(2-aminothiazol-4-yl)-2-carboxymethylene-acetamido]-3-(5-methyl-1,3,4-thiadiazol-2-yl)thiomethyl-3-cephem-4-carboxylic acid (Z-isomer) trifluoroacetate]
0.39	0.78	0.39	3.13	0.39	0.1	0.78	> 50	0.2	1.56	C[n+]1ccc(SCC2=C(C(=O)O)N3C(=O)C(NC(=O)/C(=C\C(=O)O)c4csc(N)n4)C3SC2)cc1 (stereo not drawn) [Example 7, 7-[2-(2-aminothiazol-4-yl)-2-carboxymethyleneacetamido]-3-(1-methylpyridinium-4-yl)thiomethyl-3-cephem-4-carboxylic acid (Z-isomer) trifluoroacetate]
12.5	25	12.5	> 50	0.78	3.13	25	> 50	0.78	50	C[n+]1ccc(SCC2=C(C(=O)O)N3C(=O)C(NC(=O)/C(=C/C(=O)O)c4csc(N)n4)C3SC2)cc1 (stereo not drawn) [Example 10, 7-[2-(2-aminothiazol-4-yl)-2-carboxymethylene-acetamido]-3-(1-methylpyridinium-4-yl)thiomethyl-3-cephem-4-carboxylic acid (E-isomer) trifluoroacetate]
